The term melting point denotes the temperature, or range, at which the solid turns liquid.

Regarding `CC1(C)[C@H]2Cc3c(N)cccc3[C@]1(C)CCN2CCOCc1c(F)cccc1F.Cl.Cl`, the melting point came to 270 °C.

The values above are taken from patent US6387921B1 (dated 2002).
